Source: US20210324379A1 (priority 2018, published 2021)

Assays:
HIV protease [1] = target: T1, HIV protease (Human immunodeficiency virus type 1 group M subtype B, UniProt P03366); format: cell-based; settings: control cells within ALS mixed pool screen
From the text: Ten disease models were probed as a mixed pool across a set of 22 small molecules. […] In these experiments cells containing HIV protease, DNAseI and mCherry served as controls.
Ten ALS models were probed as a mixed pool across a set of 22 small molecules. […] In these experiments, cells containing HIV protease and DNaseI served as positive controls, and cells containing mCherry served as negative controls.

HIV protease [2] = target: T1, HIV protease; format: cell-based; settings: for rescue in 3Δ cells compared to wild type cells: Δpdr1 Δpdr3 Δsnq2 (3Δ) vs WT yeast, SC-ura galactose plates with indicated amount of inhibitor (FIG. 9)
Method: FIG. 5: Spot assays of Δpdr1 Δpdr3 Δsnq2 yeast expressing pAG426-GAL empty vector or pAG426-GAL-HIV protease. Strains were grown to saturation in SC-ura glucose media and serial dilutions (10-fold) of yeast were plated on SC-ura glucose or SC-ura galactose plates with or without 5 μM lopinavir added.
Cells expressing pAG426-GAL-HIV vectors were transformed into either wild type (WT) or Δpdr1 Δpdr3 Δsnq2 (3Δ) yeast which show a reduced ability to export exogenous small molecules from the cell. Cells were then grown overnight in SC-ura glucose media and spotted at 10-fold serial dilution onto SC-ura galactose plates containing the indicated amount of HIV protease inhibitor (Lopinavir or Saquinavir).

ALS models = test: Pooled DNA barcoded drug screen of ALS models against 22 small molecules (FIG. 14/18); format: cell-based, yeast; settings: ten ALS models as mixed pool
Method: Y axis represents drugs screened at 10 uM. X axis represents protein modeled and which cell line. WT=Natural expression of drug transporters.

mcherry = test: Manual spot assay of cultures plated in 5-fold dilutions (FIG. 12B); format: cell-based; settings: consecutive 5-fold dilutions
Method: (§1) Y axis represents drugs screened at 10 uM. X axis represents protein modeled and which cell line. WT=Natural expression of drug transporters. KO=No expression of multidrug transporters PDR1 and PDR3.

OPTN = target: T2, OPTN (Homo sapiens, UniProt Q96CV9); test: as above; format: cell-based; settings: consecutive 5-fold dilutions
T2 construct: expressed in transfected cells; host or cells: Saccharomyces cerevisiae, galactose-inducible expression
T2 sequence (Q96CV9 whole entry): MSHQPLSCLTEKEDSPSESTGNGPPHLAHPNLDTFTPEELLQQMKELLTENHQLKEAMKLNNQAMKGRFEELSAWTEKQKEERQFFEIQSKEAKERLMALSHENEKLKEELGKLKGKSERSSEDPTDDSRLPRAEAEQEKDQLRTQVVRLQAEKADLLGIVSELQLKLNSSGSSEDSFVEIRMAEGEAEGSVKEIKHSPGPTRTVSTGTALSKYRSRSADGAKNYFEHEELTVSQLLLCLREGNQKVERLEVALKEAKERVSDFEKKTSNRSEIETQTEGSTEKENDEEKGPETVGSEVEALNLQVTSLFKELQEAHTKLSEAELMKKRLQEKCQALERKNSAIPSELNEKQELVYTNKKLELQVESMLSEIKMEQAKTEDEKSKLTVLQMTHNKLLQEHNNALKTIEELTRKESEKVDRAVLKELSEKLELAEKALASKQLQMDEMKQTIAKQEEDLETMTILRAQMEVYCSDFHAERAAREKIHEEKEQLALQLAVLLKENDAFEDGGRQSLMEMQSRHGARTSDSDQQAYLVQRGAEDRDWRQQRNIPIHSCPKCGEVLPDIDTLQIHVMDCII
Method: as §1
(§2) In addition, the presently disclosed screening methods were also applied towards an entirely orthogonal set of proteins. Aggregation-prone proteins are prevalent in numerous eukaryotic life forms and are implicated in a wide range of neurodegenerative diseases. […] In a drug screen of aggregation-prone proteins against 23 drugs, two significant interactions were identified (see FIG. 12A).

TAF15 = target: T3, TAF15 (Homo sapiens, UniProt Q92804); test: as above; format: cell-based; settings: consecutive 5-fold dilutions
T3 construct: expressed in transfected cells; host or cells: Saccharomyces cerevisiae, galactose-inducible expression
T3 sequence (Q92804 whole entry): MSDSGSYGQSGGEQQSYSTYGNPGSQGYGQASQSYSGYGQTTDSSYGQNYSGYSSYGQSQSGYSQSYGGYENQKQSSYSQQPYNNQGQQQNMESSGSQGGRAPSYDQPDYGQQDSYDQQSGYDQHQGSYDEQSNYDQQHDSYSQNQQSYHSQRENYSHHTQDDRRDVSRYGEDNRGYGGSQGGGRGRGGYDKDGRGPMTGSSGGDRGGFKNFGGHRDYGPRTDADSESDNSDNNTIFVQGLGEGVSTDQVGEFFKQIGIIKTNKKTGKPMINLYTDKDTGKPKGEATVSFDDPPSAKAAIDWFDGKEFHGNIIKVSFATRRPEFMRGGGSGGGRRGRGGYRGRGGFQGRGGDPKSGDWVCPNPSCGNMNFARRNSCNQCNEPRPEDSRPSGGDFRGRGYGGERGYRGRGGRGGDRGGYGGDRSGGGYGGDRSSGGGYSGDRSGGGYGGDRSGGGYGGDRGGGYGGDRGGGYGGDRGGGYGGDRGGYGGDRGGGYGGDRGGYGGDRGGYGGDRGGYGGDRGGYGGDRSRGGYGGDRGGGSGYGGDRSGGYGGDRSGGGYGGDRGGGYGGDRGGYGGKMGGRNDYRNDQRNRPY
Method: as §1, §2

HIV protease [3] = target: T1, HIV protease; format: cell-based; settings: drugs screened at 10 μM; MAGeCK analysis; WT and KO cells
Method: (§3) Implementation of drug screening platform for proteases of viral or bacterial origin. Y axis represents drugs screened at 10 uM. X axis represents protein modeled and which cell line. WT=Natural expression of drug transporters. KO=No expression of PDR1, PDR3 and SNQ2.
(§4) All drugs were screened at a concentration of 10 μM. Barcoded cells expressing various protein drug targets were grown up individually on agar plates containing SC-ura-leu glucose. These strains were then inoculated into SC-ura-leu with glucose liquid culture media and after overnight growth were mixed together in equal amounts to generate the DNA barcoded library. The DNA barcoded library was then inoculated into SC-ura-leu with galactose liquid culture media with and without small molecule compounds.
(§5) Amplicons for NGS were generated through a two-step PCR protocol. Barcode sequences were amplified with Taq polymerase from genomic DNA preparations with primers anchored in constant regions of the 415-Kan-BC plasmid.

[4] = system: protease and kinase expressing cells; test: Mixed pool barcoded drug screen of protease and kinase expressing yeast (Example 4, FIG. 23, 25); format: cell-based; settings: FIG. 25A/25C
From the text: FIG. 23A-FIG. 23C: Modulation of multidrug exporters enables the testing of multiple drug concentrations in parallel. FIG. 23A: Cells expressing wild type levels of multidrug exporters capture compound known to inhibit HIV protease activity. FIG. 23B: Similar to FIG. 23A, except cells are deficient in the expression of several multidrug exporters. A greater number of previously identified protease and kinase inhibitors are identified when using the drug exporter deficient background. FIG. 23C: The average degree of rescue, measured by the growth recovery of a specific yeast strain expressing a toxic protein, is higher in the knockout background as a result of higher intracellular drug concentrations. […] Furthermore, all of the hits shown are previously validated drug-target interactions. Each of the protein targets of interest expressed in the yeast cells is listed on the x-axis. […] FDR=false discovery rate, and is in relation to enrichment. […]
A single drug screen was performed on a mixed pool of yeast cells harboring various target proteins in order to identify compounds that interfere with each of the tested protein's function. […] In order to test multiple protein targets at a time, a unique DNA barcode was added to each yeast cell, such that when read using next generation sequencing, its abundance within a mixed pool can be quantified. […]

wimpy yeast = test: Off-target toxicity detection with barcoded wimpy yeast (FIG. 25B, 25D); format: cell-based; settings: mixed pool
From the text: FIG. 25A-FIG. 25D: Wimpy Yeast allow for detection of drugs causing off-target toxicity in barcoded yeast pools. […] FIG. 25C and FIG. 25D: For a subset of drugs with known specific rescue of various proteases and kinases, the present screen is able to capture these effects, and a corresponding decrease in growth of any of the tested wimpy yeast was not observed. For all figures each of the protein targets of interest expressed in the yeast cells or the genes knocked out of their genome is listed on the x-axis. […] FDR=false discovery rate, FDR for FIG. 25A and FIG. 25C are in relation to enrichment while FIG. 25B and FIG. 25D are in relation to depletion.
To detect drugs that have additional pleotropic effects, which may confound the interpretation by appearing to rescue specific models, but in fact was a result of off-target effects rather than on-target enzymatic inhibition, a series of “wimpy” yeast were developed that were engineered to be sensitive to a wide variety of off-target drug toxicities (i.e., perturbations to various biological pathways). These wimpy yeast strains are engineered by using genetic mutation to selectively render the cells hypersensitive to perturbations to various core cellular pathways. […]

EYFP = format: cell-based; settings: drugs screened at 10 μM; MAGeCK analysis
Method: as §3, §4, §5

For `CC(C)CN(C[C@@H](O)[C@H](Cc1ccccc1)NC(=O)O[C@H]1CO[C@H]2OCC[C@H]21)S(=O)(=O)c1ccc(N)cc1` [Darunavir], the “rescue of growth for cells expressing HIV protease” value (HIV protease [1]) was “expected rescue of growth”.
`Cc1cccc(C)c1OCC(=O)N[C@@H](Cc1ccccc1)[C@@H](O)C[C@H](Cc1ccccc1)NC(=O)[C@H](C(C)C)N1CCCNC1=O` [Lopinavir] was tested, and the “rescue in 3Δ cells compared to wild type cells” value (HIV protease [2]) was “significant increases in rescue” and the “mitigation of toxicity of yeast expressing HIV protease” value (HIV protease [2]; Δpdr1 Δpdr3 Δsnq2 yeast, SC-ura galactose plates, 5 μM lopinavir (FIG. 5)) was “toxicity can be mitigated”.
With `Nc1nc2ccc(OC(F)(F)F)cc2s1` [Riluzole] the “hit among >200 tested ALS gene-drug interactions” value (ALS models) was “potential hits”, the “growth of mcherry expressing cells in the presence of drug” value (mcherry) was “decreased growth” and the “growth of OPTN expressing cells in the presence of drug” value (OPTN) was “slight growth improvement”. The “growth of TAF15 expressing cells in the presence of drug” value (TAF15) was “decreased growth”.
With `CC(C)(C)NC(=O)[C@@H]1C[C@@H]2CCCC[C@@H]2CN1C[C@@H](O)[C@H](Cc1ccccc1)NC(=O)[C@H](CC(N)=O)NC(=O)c1ccc2ccccc2n1` [Saquinavir] the “rescue in 3Δ cells compared to wild type cells” value (HIV protease [2]) was “significant increases in rescue”.
For `COC(=O)N[C@H](C(=O)N[C@@H](Cc1ccccc1)[C@@H](O)CN(Cc1ccc(-c2ccccn2)cc1)NC(=O)[C@@H](NC(=O)OC)C(C)(C)C)C(C)(C)C` [atazanavir], the “barcode enrichment / protein-drug interaction for cells expressing HIV protease” value (HIV protease [3]) was “protein-drug interactions”.
With `CC(=O)[C@]1(O)Cc2c(O)c3c(c(O)c2[C@@H](O[C@H]2C[C@H](N)[C@H](O)[C@H](C)O2)C1)C(=O)c1ccccc1C3=O` [idarubicin] the “rescue of protease and kinase expressing cells (barcode enrichment)” value [4] was “significant rescue” and the “growth of the wimpy yeast models (barcode depletion)” value (wimpy yeast) was “decrease in the growth”.
For `CCCC(CCC)C(=O)O` [valproic acid], the “non-specific drug interaction with control-expressing cells” value (EYFP) was “non-specific drug interactions”.
